# Active and inactive are the calls of the source. No cut-off for these calls is given here.
# Key:
# HCT-116 [1] = assay: Cytotoxicity against human HCT116 cells by MTT assay; type: functional, cell-based
# HL-60 [2] = assay: Cytotoxicity against human HL60 cells by MTT assay; type: functional, cell-based
# HL-60 [3] = assay: Induction of apoptosis in human HL60 cells assessed as cell shrinkage at IC50 concentration after 24 to 48 hrs using Hoechst 33342 staining by fluorescence microscope; type: functional, cell-based
# HCT-116 [4] = assay: Induction of apoptosis in human HCT116 cells assessed as chromatin condensation at IC50 concentration after 24 to 48 hrs using Hoechst 33342 staining by fluorescence microscope; type: functional, cell-based
# HCT-116 [5] = assay: Induction of apoptosis in human HCT116 cells assessed as increase in expression of DR5 by Western blotting; type: functional, cell-based
# HL-60 [6] = assay: Induction of apoptosis in human HL60 cells assessed as membrane blebbing at IC50 concentration after 24 to 48 hrs using Hoechst 33342 staining by fluorescence microscope; type: functional, cell-based
# HCT-116 [7] = assay: Induction of apoptosis in human HCT116 cells assessed as increase in caspase-9 activation by Western blotting; type: functional, cell-based
# HCT-116 [8] = assay: Induction of apoptosis in human HCT116 cells assessed as membrane blebbing at IC50 concentration after 24 to 48 hrs using Hoechst 33342 staining by fluorescence microscope; type: functional, cell-based
# HCT-116 [9] = assay: Induction of apoptosis in human HCT116 cells assessed as decrease in expression of BCL-2 by Western blotting; type: functional, cell-based
# HL-60 [10] = assay: Induction of apoptosis in human HL60 cells assessed as chromatin condensation at IC50 concentration after 24 to 48 hrs using Hoechst 33342 staining by fluorescence microscope; type: functional, cell-based
# HCT-116 [11] = assay: Induction of apoptosis in human HCT116 cells assessed as cell shrinkage at IC50 concentration after 24 to 48 hrs using Hoechst 33342 staining by fluorescence microscope; type: functional, cell-based
# HCT-116 [12] = assay: Induction of apoptosis in human HCT116 cells assessed as increase in expression of Bax by Western blotting; type: functional, cell-based
# HCT-116 [13] = assay: Induction of apoptosis in human HCT116 cells assessed as increase in induction of PARP cleavage by Western blotting; type: functional, cell-based
# [14] = biological target: Mitogen-activated protein kinase; ERK1/ERK2 (Homo sapiens) (UniProt P27361+P28482); assay: Activation of ERK1/2 in human HCT116 cells assessed as phosphorylated ERK1/2 level by Western blotting; type: cell-based; settings: HCT-116
# Sequence of Mitogen-activated protein kinase; ERK1/ERK2 (Homo sapiens) (P27361 whole entry, looked up): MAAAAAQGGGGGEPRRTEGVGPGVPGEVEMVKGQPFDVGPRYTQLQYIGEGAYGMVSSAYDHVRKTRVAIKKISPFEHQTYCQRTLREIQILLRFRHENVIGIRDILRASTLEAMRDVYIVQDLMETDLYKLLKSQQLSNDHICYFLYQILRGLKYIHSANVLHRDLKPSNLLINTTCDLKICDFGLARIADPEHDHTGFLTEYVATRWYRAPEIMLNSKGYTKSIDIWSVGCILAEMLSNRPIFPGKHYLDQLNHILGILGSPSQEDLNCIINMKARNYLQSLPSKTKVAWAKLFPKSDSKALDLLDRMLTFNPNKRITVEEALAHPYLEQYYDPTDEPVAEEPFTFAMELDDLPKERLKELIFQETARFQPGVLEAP
# Sequence of Mitogen-activated protein kinase; ERK1/ERK2 (Homo sapiens) (P28482 whole entry, looked up): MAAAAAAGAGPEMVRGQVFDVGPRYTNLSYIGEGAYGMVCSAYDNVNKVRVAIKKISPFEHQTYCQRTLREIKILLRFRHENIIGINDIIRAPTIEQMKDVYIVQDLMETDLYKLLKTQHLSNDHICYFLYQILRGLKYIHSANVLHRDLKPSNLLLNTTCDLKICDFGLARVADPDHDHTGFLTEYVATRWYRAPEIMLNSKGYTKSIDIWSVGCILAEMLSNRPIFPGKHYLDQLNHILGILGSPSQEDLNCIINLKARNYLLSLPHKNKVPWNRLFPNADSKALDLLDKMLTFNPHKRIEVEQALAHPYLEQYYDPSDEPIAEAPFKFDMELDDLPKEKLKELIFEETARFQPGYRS
Structure (SMILES),IC50 (HCT-116 [1]) [µM],IC50 (HL-60 [2]) [µM],further results
CC1(C)CC[C@]2(C(=O)O[C@@H]3O[C@H](CO)[C@@H](O)[C@H](O)[C@H]3O)CC[C@]3(C)C(=CC[C@@H]4[C@@]5(C)CC[C@H](O[C@@H]6O[C@H](C(=O)O)[C@@H](O)[C@H](O[C@@H]7O[C@H](CO)[C@@H](O)[C@H](O)[C@H]7O)[C@H]6O)C(C)(C)[C@@H]5CC[C@]43C)[C@@H]2C1,> 100,73,
O=C1c2c(O)ccc(O)c2C(=O)c2c(NCCNCCO)ccc(NCCNCCO)c21 [MITOXANTRONE],3.96,7.5,
COC(=O)[C@H]1O[C@@H](O[C@H]2CC[C@]3(C)[C@H]4CC=C5[C@@H]6CC(C)(C)CC[C@]6(C(=O)O[C@@H]6O[C@H](CO)[C@@H](O)[C@H](O)[C@H]6O)CC[C@@]5(C)[C@]4(C)CC[C@H]3C2(C)C)[C@H](O)[C@@H](O[C@@H]2O[C@H](CO)[C@@H](O)[C@H](O)[C@H]2O)[C@@H]1O,> 100,83.9,
CC1(C)CC[C@]2(C(=O)O[C@@H]3O[C@H](CO)[C@@H](O)[C@H](O)[C@H]3O)CC[C@]3(C)C(=CC[C@@H]4[C@@]5(C)CC[C@H](O[C@@H]6O[C@H](CO)[C@@H](O)[C@H](O)[C@H]6O[C@H]6OC[C@@H](O)[C@H](O)[C@H]6O)C(C)(C)[C@@H]5CC[C@]43C)[C@@H]2C1,75.9,> 100,
CC1(C)CC[C@]2(C(=O)O[C@@H]3O[C@H](CO)[C@@H](O)[C@H](O)[C@H]3O)CC[C@]3(C)C(=CC[C@@H]4[C@@]5(C)CC[C@H](O[C@@H]6O[C@H](C(=O)O)[C@@H](O)[C@H](O)[C@H]6O)C(C)(C)[C@@H]5CC[C@]43C)[C@@H]2C1 [CHIKUSETSUSAPONIN IVA],78.1,76.2,
CC1(C)CC[C@]2(C(=O)O[C@@H]3O[C@H](CO)[C@@H](O)[C@H](O)[C@H]3O)CC[C@]3(C)C(=CC[C@@H]4[C@@]5(C)CC[C@H](O[C@@H]6O[C@H](C(=O)O)[C@@H](O)[C@H](O)[C@H]6O[C@H]6OC[C@@H](O)[C@H](O)[C@H]6O)C(C)(C)[C@@H]5CC[C@]43C)[C@@H]2C1 [PSEUDOGINSENOSIDE RT1],> 100,91.2,
COC(=O)[C@H]1O[C@@H](O[C@H]2CC[C@]3(C)[C@H]4CC=C5[C@@H]6CC(C)(C)CC[C@]6(C(=O)O)CC[C@@]5(C)[C@]4(C)CC[C@H]3C2(C)C)[C@H](O)[C@@H](O[C@@H]2O[C@H](CO)[C@@H](O)[C@H](O)[C@H]2O)[C@@H]1O [SPINASAPONIN A METHYL ESTER],0.63,4.44,Activity (HL-60 [3]): Active; Activity (HCT-116 [4]): Active; Activity (HCT-116 [5]): Active; Activity (HL-60 [6]): Active; Activity (HCT-116 [7]): Active; Activity (HCT-116 [8]): Active; Activity (HCT-116 [9]): Active; Activity (HL-60 [10]): Active; Activity (HCT-116 [11]): Active; Activity (HCT-116 [12]): Active; Activity (HCT-116 [13]): Active; Activity [14]: Active
CC1(C)CC[C@]2(C(=O)O[C@@H]3O[C@H](CO)[C@@H](O)[C@H](O)[C@H]3O)CC[C@]3(C)C(=CC[C@@H]4[C@@]5(C)CC[C@H](O[C@@H]6O[C@H](C(=O)O)[C@@H](O[C@H]7O[C@@H](CO)[C@H](O)[C@H]7O)[C@H](O[C@@H]7O[C@H](CO)[C@@H](O)[C@H](O)[C@H]7O)[C@H]6O)C(C)(C)[C@@H]5CC[C@]43C)[C@@H]2C1 [STIPULEANOSIDE R2],> 100,> 100,
COC(=O)[C@H]1O[C@@H](O[C@H]2CC[C@]3(C)[C@H]4CC=C5[C@@H]6CC(C)(C)CC[C@]6(C(=O)O[C@@H]6O[C@H](CO)[C@@H](O)[C@H](O)[C@H]6O)CC[C@@]5(C)[C@]4(C)CC[C@H]3C2(C)C)[C@H](O)[C@@H](O[C@@H]2O[C@H](CO)[C@@H](O)[C@H](O)[C@H]2O)[C@@H]1O[C@H]1O[C@@H](CO)[C@H](O)[C@H]1O [STIPULEANOSIDE R2 METHYL ESTER],> 100,67.1,
CC1(C)CC[C@]2(C(=O)O)CC[C@]3(C)C(=CC[C@@H]4[C@@]5(C)CC[C@H](O)C(C)(C)[C@@H]5CC[C@]43C)[C@@H]2C1 [OLEANOLIC_ACID],4.8,77.5,
COC(=O)[C@H]1O[C@@H](O[C@H]2CC[C@]3(C)[C@H]4CC=C5[C@@H]6CC(C)(C)CC[C@]6(C(=O)O[C@@H]6O[C@H](CO)[C@@H](O)[C@H](O)[C@H]6O)CC[C@@]5(C)[C@]4(C)CC[C@H]3C2(C)C)[C@H](O[C@H]2OC[C@@H](O)[C@H](O)[C@H]2O)[C@@H](O)[C@@H]1O [PSEUDOGINSENOSIDE RT1 METHYL ESTER],> 100,> 100,
COC(=O)[C@H]1O[C@@H](O[C@H]2CC[C@]3(C)[C@H]4CC=C5[C@@H]6CC(C)(C)CC[C@]6(C(=O)O)CC[C@@]5(C)[C@]4(C)CC[C@H]3C2(C)C)[C@H](O[C@H]2OC[C@@H](O)[C@H](O)[C@H]2O)[C@@H](O)[C@@H]1O [PESUDOGINSENOSIDE RP1 METHYL ESTER],6.5,41.5,Activity (HL-60 [3]): Active; Activity (HCT-116 [4]): Active; Activity (HCT-116 [5]): Active; Activity (HL-60 [6]): Active; Activity (HCT-116 [7]): Active; Activity (HCT-116 [8]): Active; Activity (HCT-116 [9]): Active; Activity (HL-60 [10]): Active; Activity (HCT-116 [11]): Active; Activity (HCT-116 [12]): Active; Activity (HCT-116 [13]): Active; Activity [14]: Active
COC(=O)[C@H]1O[C@@H](O[C@H]2CC[C@]3(C)[C@H]4CC=C5[C@@H]6CC(C)(C)CC[C@]6(C(=O)O[C@@H]6O[C@H](CO)[C@@H](O)[C@H](O)[C@H]6O)CC[C@@]5(C)[C@]4(C)CC[C@H]3C2(C)C)[C@H](O)[C@@H](O)[C@@H]1O[C@H]1O[C@@H](CO)[C@H](O)[C@H]1O [ARALOSIDE A METHYL ESTER],> 100,63.4,

# — ChEMBL document CHEMBL1287676, “Oleanane-type triterpenoids from Panax stipuleanatus and their anticancer activities” (Bioorg Med Chem Lett, 2010)
